Results as given in patent US10370371B2, “Substituted pyrimidine Bmi-1 inhibitors” (PTC Therapeutics, Inc., priority 2013, dated 2019).

tested on: Bmi-1 protein; experiment: Sandwich ELISA Assay (Bmi-1 protein level in HT-1080 cells); format: cell-based
Summary of the method: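 HT-1080 cells were treated with compounds (0.5% DMSO final) for 40-48 h at 37 °C. Lysates were assayed by sandwich ELISA: mouse anti-Bmi-1 capture, rabbit anti-Bmi-1 and HRP anti-rabbit detection, TMB read at OD450 (OD570 reference). Levels were quantified against a recombinant GST-Bmi-1 standard curve (125-8000 pg/mL).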

Structure (SMILES) | EC50 [nM]
CCc1nc2ccc(F)cc2n1-c1cc(N)nc(Nc2cccc(Cl)c2)n1 [Cpd 164, N^2-(3-chlorophenyl)-6-(2-ethyl-6-fluoro-1H-benzimidazol-1-yl)pyrimidine-2,4-diamine] | 100 to 3000
Cc1cccc(Nc2nc(N)cc(-c3c(C)nc4ccc(F)cn34)n2)c1 [Cpd 173, 6-(6-fluoro-2-methylimidazo[1,2-a]pyridin-3-yl)-N^2-(3-methylphenyl)pyrimidine-2,4-diamine] | 100 to 3000
Cc1ccc(Nc2nc(N)cc(-c3c(C)noc3C)n2)cc1 [Cpd 190, 6-(3,5-dimethyl-1,2-oxazol-4-yl)-N^2-(4-methylphenyl)pyrimidine-2,4-diamine] | 100 to 3000
Cc1nc2cc(F)ccc2n1-c1cc(N)nc(Nc2ccc(Cl)cc2)n1 [Cpd 191, N^2-(4-chlorophenyl)-6-(5-fluoro-2-methyl-1H-benzimidazol-1-yl)pyrimidine-2,4-diamine] | 100 to 3000
Cc1nc2cc(F)ccc2n1-c1cc(N)nc(Nc2ccc(Cl)c(F)c2)n1 [Cpd 192, N^2-(4-chloro-3-fluorophenyl)-6-(5-fluoro-2-methyl-1H-benzimidazol-1-yl)pyrimidine-2,4-diamine] | 100 to 3000
Cc1nc2cc(F)c(F)cc2n1-c1cc(N)nc(Nc2cccc(Cl)c2)n1 [Cpd 193, N^2-(3-chlorophenyl)-6-(5,6-difluoro-2-methyl-1H-benzimidazol-1-yl)pyrimidine-2,4-diamine] | 100 to 3000
Cc1nc2cc(F)c(F)cc2n1-c1cc(N)nc(Nc2ccc([N+](=O)[O-])cc2)n1 [Cpd 194, 6-(5,6-difluoro-2-methyl-1H-benzimidazol-1-yl)-N^2-(4-nitrophenyl)pyrimidine-2,4-diamine] | 100 to 3000
Cc1cccc(Nc2nc(N)cc(-n3c(C)nc4cc(F)c(F)cc43)n2)c1 [Cpd 195, 6-(5,6-difluoro-2-methyl-1H-benzimidazol-1-yl)-N^2-(3-methylphenyl)pyrimidine-2,4-diamine] | 100 to 3000
COc1cccc(Nc2nc(N)cc(-n3c(C)nc4cc(F)c(F)cc43)n2)c1 [Cpd 196, 6-(5,6-difluoro-2-methyl-1H-benzimidazol-1-yl)-N^2-(3-methoxyphenyl)pyrimidine-2,4-diamine] | 100 to 3000
COc1ccc(Nc2nc(N)c(Cl)c(-n3c(C)nc4ccccc43)n2)cc1 [Cpd 197, 5-chloro-N^2-(4-methoxyphenyl)-6-(2-methyl-1H-benzimidazol-1-yl)pyrimidine-2,4-diamine] | 100 to 3000
Cc1noc(C)c1-c1cc(N)nc(Nc2ccc(Cl)cc2)n1 [Cpd 198, N^2-(4-chlorophenyl)-6-(3,5-dimethylisoxazol-4-yl)pyrimidine-2,4-diamine] | 100 to 3000
Cc1nc2cc(F)ccc2n1-c1cc(N)[n+]([O-])c(Nc2ccc(C(F)(F)F)cc2)n1 [Cpd 199, 6-(5-fluoro-2-methyl-1H-benzimidazol-1-yl)-N^2-[4-(trifluoromethyl)phenyl]pyrimidine-2,4-diamine 3-oxide] | 100 to 3000

Continued, values first:

EC50 [nM] | Structure (SMILES)
1 to 10 | Cc1nc2ccc(F)cn2c1-c1cc(N)nc(Nc2ccc(OC(F)F)cc2)n1 [Cpd 2, N^2-[4-(difluoromethoxy)phenyl]-6-(6-fluoro-2-methylimidazo[1,2-a]pyridin-3-yl)pyrimidine-2,4-diamine]
10 to 100 | Cc1nc2ccc(F)cc2n1-c1cc(N)nc(Nc2ccc(OC(F)F)cc2)n1 [Cpd 5, N^2-[4-(difluoromethoxy)phenyl]-6-(6-fluoro-2-methyl-1H-benzimidazol-1-yl)pyrimidine-2,4-diamine]
10 to 100 | CCc1nc2ccc(F)cc2n1-c1cc(N)nc(Nc2ccc(OC(F)F)c(F)c2)n1 [Cpd 11, N^2-[4-(difluoromethoxy)-3-fluorophenyl]-6-(2-ethyl-6-fluoro-1H-benzimidazol-1-yl)pyrimidine-2,4-diamine]
10 to 100 | Nc1cc(-n2c(C3CC3)nc3ccc(F)cc32)nc(Nc2ccc(OC(F)F)c(F)c2)n1 [Cpd 12, 6-(2-cyclopropyl-6-fluoro-1H-benzimidazol-1-yl)-N^2-[4-(difluoromethoxy)-3-fluorophenyl]pyrimidine-2,4-diamine]
10 to 100 | Nc1cc(-n2c(C(F)F)nc3ccc(F)cc32)nc(Nc2ccc(C(F)(F)F)cc2)n1 [Cpd 33, 6-[2-(difluoromethyl)-6-fluoro-1H-benzimidazol-1-yl]-N^2-[4-(trifluoromethyl)phenyl]pyrimidine-2,4-diamine]
1 to 10 | CCc1nc2ccccc2n1-c1cc(N)nc(Nc2ccc(C)cc2)n1 [Cpd 153, 6-(2-ethyl-1H-benzimidazol-1-yl)-N^2-(4-methylphenyl)pyrimidine-2,4-diamine]
1 to 10 | COc1ccc(Nc2nc(N)cc(-c3c(C)nc4ccc(F)cn34)n2)cc1 [Cpd 170, 6-(6-fluoro-2-methylimidazo[1,2-a]pyridin-3-yl)-N^2-(4-methoxyphenyl)pyrimidine-2,4-diamine]
1 to 10 | Cc1ccc(Nc2nc(N)cc(-c3c(C)nc4ccc(F)cn34)n2)cc1 [Cpd 171, 6-(6-fluoro-2-methylimidazo[1,2-a]pyridin-3-yl)-N^2-(4-methylphenyl)pyrimidine-2,4-diamine]
10 to 100 | Cc1nc2ccc(F)cc2n1-c1cc(N)nc(Nc2ccc(Cl)c(F)c2)n1 [Cpd 174, N^2-(4-chloro-3-fluorophenyl)-6-(6-fluoro-2-methyl-1H-benzimidazol-1-yl)pyrimidine-2,4-diamine]
10 to 100 | COc1ccc(Nc2nc(N)c(F)c(-n3c(C)nc4ccccc43)n2)cc1 [Cpd 176, 5-fluoro-N^2-(4-methoxyphenyl)-6-(2-methyl-1H-benzimidazol-1-yl)pyrimidine-2,4-diamine]
10 to 100 | Cc1nc2ccccc2n1-c1cc(N)nc(Nc2ccc(Cl)cc2)n1 [Cpd 177, N^2-(4-chlorophenyl)-6-(2-methyl-1H-benzimidazol-1-yl)pyrimidine-2,4-diamine]
1 to 10 | Cc1ccc(Nc2nc(N)c(F)c(-n3c(C)nc4ccccc43)n2)cc1 [Cpd 178, 5-fluoro-6-(2-methyl-1H-benzimidazol-1-yl)-N^2-(4-methylphenyl)pyrimidine-2,4-diamine]
10 to 100 | Cc1nc2ccccc2n1-c1cc(N)nc(Nc2ccc(Cl)c(F)c2)n1 [Cpd 179, N^2-(4-chloro-3-fluorophenyl)-6-(2-methyl-1H-benzimidazol-1-yl)pyrimidine-2,4-diamine]
1 to 10 | COc1ccc(Nc2nc(N)cc(-n3c(C)nc4cc(F)c(F)cc43)n2)cc1 [Cpd 180, 6-(5,6-difluoro-2-methyl-1H-benzimidazol-1-yl)-N^2-(4-methoxyphenyl)pyrimidine-2,4-diamine]
1 to 10 | Cc1ccc(Nc2nc(N)cc(-n3c(C)nc4cc(F)c(F)cc43)n2)cc1 [Cpd 181, 6-(5,6-difluoro-2-methyl-1H-benzimidazol-1-yl)-N^2-(4-methylphenyl)pyrimidine-2,4-diamine]
10 to 100 | Cc1nc2cc(F)c(F)cc2n1-c1cc(N)nc(Nc2ccc(Cl)cc2)n1 [Cpd 182, N^2-(4-chlorophenyl)-6-(5,6-difluoro-2-methyl-1H-benzimidazol-1-yl)pyrimidine-2,4-diamine]
10 to 100 | Cc1ccc(Nc2nc(N)cc(-n3c(C)nc4cc(C)c(C)cc43)n2)cc1 [Cpd 183, N^2-(4-methylphenyl)-6-(2,5,6-trimethyl-1H-benzimidazol-1-yl)pyrimidine-2,4-diamine]

tested on: not given; experiment: not given

melting point [°C] | Structure (SMILES)
189 to 190 | Cc1nc2ccc(F)cn2c1-c1cc(N)nc(Nc2ccc(OC(F)F)cc2)n1 [Cpd 2, N^2-[4-(difluoromethoxy)phenyl]-6-(6-fluoro-2-methylimidazo[1,2-a]pyridin-3-yl)pyrimidine-2,4-diamine]
141 to 143 | Cc1nc2ccc(F)cc2n1-c1cc(N)nc(Nc2ccc(OC(F)F)cc2)n1 [Cpd 5, N^2-[4-(difluoromethoxy)phenyl]-6-(6-fluoro-2-methyl-1H-benzimidazol-1-yl)pyrimidine-2,4-diamine]
159 to 161 | CCc1nc2ccc(F)cc2n1-c1cc(N)nc(Nc2ccc(OC(F)F)c(F)c2)n1 [Cpd 11, N^2-[4-(difluoromethoxy)-3-fluorophenyl]-6-(2-ethyl-6-fluoro-1H-benzimidazol-1-yl)pyrimidine-2,4-diamine]
185 to 186 | Nc1cc(-n2c(C3CC3)nc3ccc(F)cc32)nc(Nc2ccc(OC(F)F)c(F)c2)n1 [Cpd 12, 6-(2-cyclopropyl-6-fluoro-1H-benzimidazol-1-yl)-N^2-[4-(difluoromethoxy)-3-fluorophenyl]pyrimidine-2,4-diamine]
201 to 203 | Nc1cc(-n2c(C(F)F)nc3ccc(F)cc32)nc(Nc2ccc(C(F)(F)F)cc2)n1 [Cpd 33, 6-[2-(difluoromethyl)-6-fluoro-1H-benzimidazol-1-yl]-N^2-[4-(trifluoromethyl)phenyl]pyrimidine-2,4-diamine]
